“And” between values parts separate entries of the source, which are not always exact repeats. Equal values may be shown once. Read-outs that look alike come from different tables or passages of the source.
What was measured:
[1] = system: K-Ras mutant cancer cell lines HCT116; test: Western blot of p53 and p21 expression in K-Ras mutant HCT116 cells; format: cell-based; conditions: for fold induction at 10 µM: Homo sapiens, HCT-116, HCT116, 10 μM; for Protein expression ratio of compound to control, p21 / Protein expression ratio of compound to control, p53: HCT116, 10 μM, DMSO control = 1.0
Experimental: To confirm whether the compounds prepared according to Examples 1 to 5 are effective for inhibiting SNAIL-p53 binding at cell level, the compound was treated into K-Ras mutant cancer cell lines HCT116 and results were analyzed by western blotting.
Oncogenic K-ras suppresses the p53 activity through SNAIL. In the cell line HCT116, SNAIL is always expressed by K-Ras mutation and bound to p53 to suppress normal activity of p53. If the K-Ras mutant cancer cell line HCT116 is treated with a compound for suppressing SNAIL-p53 binding, p53 is normally activated and more expressed, and target genes of p53 are induced.
First, western blotting was performed to detect expression of p53 and p21, which is a target gene of p53. All cell lines used in the present invention were obtained from ATCC, and maintained in 10% FBS-containing RPMI-1640 or DMEM. Protein was extracted with RIPA buffer solution and a membrane loaded with cell lysate through typical SDS-PAGE and gel transfer method was prepared. After blocking with 5% non-fat dry milk, the membrane was subjected into a typical western blot procedure with an antibody corresponding to each gene. Antibodies used herein were obtained from Cell signaling, SantaCruz. p53 activity was confirmed by expression of p21, which is a target gene of p53.

SNAIL-p53 binding = test: GST pull down assay of SNAIL-p53 binding (Experimental Example 2); parameters: species or system human; conditions: FIG. 21
Experimental: GST pull down assay is a method for identifying a binding degree of two proteins. GST-fused SNAIL protein and p53 recombinant protein were prepared and treated with the compound 5o or 7a to identify a binding degree of GST-SNAIL protein and p53 protein. […] If MDM2 is over-expressed, proteolysis of p53 is induced to suppress apoptosis occurring through target genes of p53, and an […] of cells is induced. Although MDM2 is a representative control factor of p53, MDM2 is not applied to K-Ras mutant disease or mutant p53 containing disease.
To perform GST pull down assay, three human SNAIL fragments (residues 1-90, 91-112, and 113-264) and p53 fragments (1-93 and 93-292) were expressed in E. coli as GST-fusion protein. Each of the fragments was loaded on to GSH-agarose, washed, and then eluted using a buffer containing 20 mM reduced glutathione. The eluted fractions were purified using an anionexchange chromatography (HitrapQ). The recombinant human p53 protein (residues 94-292) was expressed in E. coli using the vector pET28A which contains a hexa-histidine tag at the C terminus. The p53 protein including the hexa-histidine tag was purified using Ni-NTA affinity and a size exclusion chromatography (Superdex 200). To confirm the direct binding between p53 and SNAIL, agarose-bead conjugated GST or GST-SNAIL was incubated with His-p539 (histidine-p53) in PBS for 45 minutes at 4° C.. After washing with PBS, the precipitated protein was subjected into SDS-PAGE and western blotting.

[2] = system: A549 (K-Ras mutant cancer cell line); test: Cell death rate by tryphan blue cell counting, A549; format: cell-based; conditions: A549 (A546 [sic])
Text: (§1) To confirm that the p53 induction of the compounds is related to K-Ras, A549 and HCT116, which are K-Ras mutant cancer cell lines, and MKN45, which is K-Ras wild type cancer cell line, were used.

[3] = system: HCT116 (K-Ras mutant cancer cell line); test: Cell death rate by tryphan blue cell counting, HCT116; format: cell-based
[4] = system: MKN45 (K-Ras wild type cancer cell line); test: Cell death rate by tryphan blue cell counting, MKN45; format: cell-based
Text: as §1

MDA-MB 468 = test: Western blot of p21 expression in mutant p53 MDA-MB 468 cells; format: cell-based, human; conditions: for Expression ratio of gene to control, p21: DMSO control = 1.0
[5] = DMSO control = 1.0, read-out: Protein expression ratio of compound to control, p21
[6] = DMSO control = 1.0, read-out: Protein expression ratio of compound to control, p53

CCCCCCCCCNC1=CC(=O)c2c(OC)ccc(OC)c2C1=O [Compound 5i, 2-nonylamino-5,8-dimethoxy-1,4-naphthoquinone]
fold induction at 10 µM [1, 5]: 4.6 | fold induction at 10 µM [1, 6]: 1.6

CCCCCCSC1=CC(=O)c2ccccc2C1=O [Compound 1f, 2-hexylthio-1,4-naphthoquinone]
melting point: 101 to 102 °C

COc1ccc(OC)c2c1C(=O)C=C(SCCCCCCCCCCC(=O)O)C2=O [Compound 5p, 11-(5,8-dimethoxy-1,4-dioxo-naphthalen-2-ylthio)undecanoic acid]
fold induction at 10 µM [1, 5]: 0.3 | fold induction at 10 µM [1, 6]: 1.6 | melting point: 146 to 147 °C

CCCCCCCCCSC1=CC(=O)c2ccccc2C1=O [Compound 1i, 2-nonylthio-1,4-naphthoquinone]
melting point: 105 to 106 °C

COc1ccc(OC)c2c1C(=O)C=C(SCCC(=O)N1CCN(c3ccccc3)CC1)C2=O [Compound 6a, 5,8-dimethoxy-2-(3-oxo-3-(4-phenylpiperazin-1-yl)propylthio)naphthalene-1,4-dione]
fold induction at 10 µM [1, 5]: 2.8 | fold induction at 10 µM [1, 6]: 1.9

CCCCCNC1=CC(=O)c2c(OC)ccc(OC)c2C1=O [Compound 5e, 2-pentylamino-5,8-dimethoxy-1,4-naphthoquinone]
melting point: 102 to 103 °C

COc1ccc(OC)c2c1C(=O)C=C(SCCCO)C2=O [Compound 5l, 2-(3-hydroxypropylthio)-5,8-dimethoxy-1,4-naphthoquinone]
fold induction at 10 µM [1, 5]: 0.1 | fold induction at 10 µM [1, 6]: 0.6

CCCCCCNC1=CC(=O)c2c(OC)ccc(OC)c2C1=O [Compound 5f, 2-hexylamino-5,8-dimethoxy-1,4-naphthoquinone]
melting point: 83 to 84 °C

COc1ccc(OC)c2c1C(=O)C=C([S+]([O-])CCCCCCCCCCC(=O)OCC(C)C)C2=O (centres unmarked) [Compound 8, isobutyl 11-(5,8-dimethoxyl-1,4-dioxo-1,4-dihydronaphthalene-2-ylsulfinyl) undecanoate]
Protein expression ratio of compound to control, p21 [1]: 1.7 | Protein expression ratio of compound to control, p53 [1]: 2.3

CCCCCSC1=CC(=O)c2ccccc2C1=O [Compound 1e, 2-pentylthio-1,4-naphthoquinone]
melting point: 111 to 112 °C

COc1ccc(OC)c2c1C(=O)C=C(SCCO)C2=O [Compound 5k, 2-(2-hydroxyethylthio)-5,8-dimethoxy-1,4-naphthoquinone]
fold induction at 10 µM [1, 5]: 0.2 | fold induction at 10 µM [1, 6]: 0.3 | melting point: 117 to 118 °C

COc1ccc(OC)c2c1C(=O)C=C(SCCCCCCCCCCC(=O)OCC(C)C)C2=O [Compound 7a, isobutyl-11-(5,8-dimethoxy-1,4-dioxo-1,4-dihydronaphthalene-2-ylthio)undecanoate]
fold induction at 10 µM [1, 5]: 7.2 | fold induction at 10 µM [1, 6]: 4.2 | Binding between GST-SNAIL protein and p53 (SNAIL-p53 binding): substantially weak | Cancer cell death rate of compounds with respect to control ([2]; 5 μM): 23 ± 3.4% | Cancer cell death rate of compounds with respect to control ([2]; 20 μM): 45 ± 2.3% | Cancer cell death rate of compounds with respect to control ([3]; 5 μM): 32 ± 2.1% | Cancer cell death rate of compounds with respect to control ([3]; 20 μM): 57 ± 2.8% | Cancer cell death rate of compounds with respect to control ([4]; 5 μM): 1 ± 1.0% | Cancer cell death rate of compounds with respect to control ([4]; 20 μM): 3 ± 2.4%

COc1ccc(OC)c2c1C(=O)C=C(SCCCCCCCCCCC(=O)NCC(C)C)C2=O [Compound 7b, 11-(5,8-dimethoxy-1,4-dioxo-1,4-dihydronaphthalene-2-ylthio)-N-isobutyl undecanamide]
Protein expression ratio of compound to control, p21 [1]: 7.0 | Protein expression ratio of compound to control, p53 [1]: 4.6

CCCCCCCCSC1=CC(=O)c2ccccc2C1=O [Compound 1h, 2-octylthio-1,4-naphthoquinone]
melting point: 114 to 115 °C

CCCCCCCCCCSC1=CC(=O)c2ccccc2C1=O [Compound 1j, 2-decylthio-1,4-naphthoquinone]
melting point: 101 to 102 °C

COc1ccc(OC)c2c1C(=O)C=C(SCCCCO)C2=O [Compound 5m, 2-(4-hydroxybutylthio)-5,8-dimethoxy-1,4-naphthoquinone]
fold induction at 10 µM [1, 5]: 0.1 | fold induction at 10 µM [1, 6]: 0.8 | melting point: 122 to 123 °C

CCCNC1=CC(=O)c2c(OC)ccc(OC)c2C1=O [Compound 5c, 2-propylamino-5,8-dimethoxy-1,4-naphthoquinone]
melting point: 175 to 176 °C

CCNC1=CC(=O)c2c(OC)ccc(OC)c2C1=O [Compound 5b, 2-ethylamino-5,8-dimethoxy-1,4-naphthoquinone]
melting point: 172 to 173 °C

COc1ccc(OC)c2c1C(=O)C=C(SCCCCCCO)C2=O [Compound 5n, 2-(6-hydroxyhexylthio)-5,8-dimethoxy-1,4-naphthoquinone]
fold induction at 10 µM [1, 5]: 0.2 | fold induction at 10 µM [1, 6]: 1.1

CCCCCCCCCCNC1=CC(=O)c2c(OC)ccc(OC)c2C1=O [Compound 5j, 2-decylamino-5,8-dimethoxy-1,4-naphthoquinone]
fold induction at 10 µM [1, 5]: 5 | fold induction at 10 µM [1, 6]: 1.3 | melting point: 86 to 87 °C

CCCCCCCCNC1=CC(=O)c2c(OC)ccc(OC)c2C1=O [Compound 5h, 2-octylamino-5,8-dimethoxy-1,4-naphthoquinone]
melting point: 81 to 82 °C

CCCCCCCSC1=CC(=O)c2ccccc2C1=O [Compound 1g, 2-heptylthio-1,4-naphthoquinone]
melting point: 114 to 115 °C

CCCCCCCNC1=CC(=O)c2c(OC)ccc(OC)c2C1=O [Compound 5g, 2-heptylamino-5,8-dimethoxy-1,4-naphthoquinone]
melting point: 74 to 75 °C

CCCCNC1=CC(=O)c2c(OC)ccc(OC)c2C1=O [Compound 5d, 2-butylamino-5,8-dimethoxy-1,4-naphthoquinone]
melting point: 104 to 105 °C

COc1ccc(C2=N[C@@H](c3ccc(Cl)cc3)[C@@H](c3ccc(Cl)cc3)N2C(=O)N2CCNC(=O)C2)c(OC(C)C)c1 [Nutlin-3, reference compound]
Binding between GST-SNAIL protein and p53 (SNAIL-p53 binding): did not inhibit SNAIL-p53 binding | Cancer cell death rate of compounds with respect to control ([2]; 5 μM): 11 ± 4.0% | Cancer cell death rate of compounds with respect to control ([2]; 10 μM): 19% and 19 ± 4.5% | Cancer cell death rate of compounds with respect to control ([2]; 20 μM): 25 ± 4.7% | Cancer cell death rate of compounds with respect to control ([3]; 5 μM): 21 ± 2.4% | Cancer cell death rate of compounds with respect to control ([3]; 10 μM): 32% and 32 ± 2.9% | Cancer cell death rate of compounds with respect to control ([3]; 20 μM): 40 ± 3.1% | Cancer cell death rate of compounds with respect to control ([4]; 5 μM): 28 ± 2.2% | Cancer cell death rate of compounds with respect to control ([4]; 10 μM): 38% and 38 ± 2.9% | Cancer cell death rate of compounds with respect to control ([4]; 20 μM): 47 ± 2.2% | Expression ratio of gene to control, p21 (MDA-MB 468; MDA-MB 468, 10 μM): 0.9 | Expression ratio of gene to control, p21 (MDA-MB 468; MDA-MB 468, 20 μM): 1.2 | Expression of p21 (target gene of p53) (MDA-MB 468; p53 mutant-type MDA-MB 468, FIG. 23): did not affect p21

— patent US9400281B2, “Method of screening of therapeutic agents for K-Ras mutant driven cancers” (PUSAN NATIONAL UNIVERSITY INDUSTRY-UNIVERSITY COOPERATION …, priority 2008, dated 2016)
